Reference: publication PMC10583824, “The rational design of ARUK2007145, a dual inhibitor of the α and γ isoforms of the lipid kinase phosphatidylinositol 5-phosphate 4-kinase (PI5P4K)” (RSC Medicinal Chemistry, 2023)
Converted amounts (≈) assume the structure as drawn.

How the values were obtained:
[1] = test system: MDCK-MDR1 cells; test: MDR1-MDCK bi-directional permeability and efflux; conditions: MDCK-MDR1 cells; A2B; 10 µM
Procedure: MDR1-MDCK Permeability (bi-directional): was performed by Cyprotex Discovery. Briefly, compounds were administered at 10 µM (1% DMSO final) to the apical or basolateral side of a confluent monolayer of MDR1-MDCK cells, then incubated at 37 °C for 60 minutes before appearance on the opposite side of the monolayer was determined LC-MS/MS. The efflux ratio (ER) is calculated from the ratio of B-A to A-B permeabilities.

[2] = Turbidimetric aqueous solubility; format: physicochemical; conditions: pH 7.4, turbidimetric
Procedure: (§1) ADMET experimental methods […]
Turbidimetric aqueous solubility: analysis was performed by Cyprotex Discovery. Compound in DMSO at 10 mM was serially diluted to solutions of 0.1, 0.3, 1 and 3 mM in DMSO, then further diluted 1 in 100 in buffer (0.01 M PBS, pH 7.4, 1% DMSO final). 7 replicate wells of each dilution were equilibrated for 2 hours at 37 °C before absorbance is measured at 620 nm. The solubility is estimated from the concentration of test compound that produces an increase in absorbance above vehicle control (1% DMSO in buffer). […]

[3] = test system: PI5P4Kγ+; conditions: ratio PI5P4Kα IC50 / PI5P4Kγ+ IC50, ADP-Glo
[4] = biological target: T1, PI5P4Kα (Homo sapiens, UniProt P48426); conditions: for PI5P4Kα pIC50: ADP-Glo, footnote a: inconsistent replicates, value shown is upper limit; for ADP-Glo pIC50 PI5P4Kα: Table S1, two decimals, asterisk not explained
T1 sequence (P48426 1-406): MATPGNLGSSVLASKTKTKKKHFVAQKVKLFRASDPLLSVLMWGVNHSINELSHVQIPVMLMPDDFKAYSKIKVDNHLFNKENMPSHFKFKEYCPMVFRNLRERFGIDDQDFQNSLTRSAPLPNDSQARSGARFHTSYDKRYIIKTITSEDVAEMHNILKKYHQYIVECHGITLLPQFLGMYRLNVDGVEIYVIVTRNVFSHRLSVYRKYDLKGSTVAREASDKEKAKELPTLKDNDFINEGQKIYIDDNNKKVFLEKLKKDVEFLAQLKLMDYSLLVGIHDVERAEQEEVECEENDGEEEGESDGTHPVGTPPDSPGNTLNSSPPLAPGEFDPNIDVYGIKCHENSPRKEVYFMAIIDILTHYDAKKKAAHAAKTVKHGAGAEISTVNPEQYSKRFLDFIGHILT

[5] = biological target: T1, PI5P4Kα; test: biochemical
[6] = biological target: T2, PI5P4Kγ+ (Homo sapiens, UniProt Q8TBX8, D138G/D197E/E133P/E135D/E153T/E196G/G139A/N195G/S132L/S134N); test: biochemical
T2 sequence (Q8TBX8 with tags, fused parts or gaps INS131LPN/S132D/E133S/S134Q/E135A/G136R/D138G/G139A/E153T/N195G/E196G/D197E): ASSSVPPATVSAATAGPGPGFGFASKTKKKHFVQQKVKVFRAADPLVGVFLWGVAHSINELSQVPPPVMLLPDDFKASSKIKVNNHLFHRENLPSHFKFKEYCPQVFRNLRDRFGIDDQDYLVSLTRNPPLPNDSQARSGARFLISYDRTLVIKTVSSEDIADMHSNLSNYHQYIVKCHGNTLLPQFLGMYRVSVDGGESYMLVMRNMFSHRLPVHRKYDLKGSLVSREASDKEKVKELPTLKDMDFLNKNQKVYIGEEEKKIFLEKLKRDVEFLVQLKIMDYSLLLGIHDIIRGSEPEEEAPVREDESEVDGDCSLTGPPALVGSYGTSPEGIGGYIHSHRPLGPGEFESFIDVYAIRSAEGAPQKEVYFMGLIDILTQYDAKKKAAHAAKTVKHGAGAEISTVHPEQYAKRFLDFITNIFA

[7] = Mouse liver microsome stability; format: in vitro ADME; conditions: mouse liver microsomes half-life; read-out: MLM t½
Procedure: as §1
Mouse Microsomal stability: analysis was performed by Cyprotex Discovery. Briefly, test compounds in DMSO
protein/mL) in the presence of NADPH (1 mM) at 37 °C. Aliquots were taken at time intervals (0, 5, 15, 30 and
compound remaining, allowing the determination of the half-life for the compound.

[8] = ADP-Glo pIC50 PI5P4Kα, Table S1, two decimals, asterisk not explained
[9] = ADP-Glo pIC50 PI5P4Kγ+, Table S1, two decimals, asterisk not explained
[10] = PI5P4Kγ+ pIC50, ADP-Glo, footnote a: inconsistent replicates, value shown is upper limit
[11] = PI5P4Kα pIC50, ADP-Glo, footnote a: inconsistent replicates, value shown is upper limit

SMILES	P app (A2B) [1]	solubility at 2 h [2]	Fold-selectivity (α IC50/γ IC50) [3]	PI5P4Kα pIC50 [4]	IC50 [5, 8]	IC50 [6, 9]	IC50 [6, 10]	ADP-Glo pIC50 PI5P4Kα [4]	IC50 [5, 11]	half-life at 1 µM [7]
CS(=O)(=O)c1ccc(Nc2ncnc3sc(-c4ccccc4)cc23)cc1 [Compound 5]	6.23 10^−6 cm s^−1	1 µM (≈ 0.381 µg/mL)	–	–	–	–	–	–	–	–
CS(=O)(=O)c1ccc(Nc2ncnc3sc(-c4ccncc4)cc23)cc1 [Compound 6]	–	–	63	5.9	1410 nM	22.4 nM	20 nM	–	–	–
CS(=O)(=O)c1ccc(Nc2ncnc3sc(-c4cccnc4)cc23)cc1 [Compound 9]	–	–	130	5.3	4570 nM	34.7 nM	31.6 nM	–	–	–
COc1cnccc1-c1cc2c(Nc3ccc(S(C)(=O)=O)cc3)ncnc2s1 [Compound 11]	–	–	79	–	–	32.4 nM	≥ 31.6 nM	5.58	≥ 2510 nM	–
CS(=O)(=O)c1ccc(Nc2ncnc3sc(-c4ccnc(Cl)c4)cc23)cc1 [Compound 13]	–	–	130	–	–	64.6 nM	63.1 nM	5.08	≥ 7940 nM	–
COc1ccc(Nc2ncnc3sc(-c4cccnc4C)cc23)cc1 [Compound 20]	–	–	0.69	5.9	–	1910 nM	2000 nM	5.88	–	–
Cc1cccc(Nc2ncnc3sc(-c4cccnc4C)cc23)c1 [Compound 21]	–	–	0.63	5.5	3550 nM	5250 nM	5010 nM	–	–	–
Cc1ccc(Nc2ncnc3sc(-c4cccnc4C)cc23)cc1 [Compound 22]	–	–	0.4	6.2	–	1550 nM	1580 nM	6.22	–	–
CCc1ccc(Nc2ncnc3sc(-c4cccnc4C)cc23)cc1 [Compound 23]	–	–	1.6	6.2	–	389 nM	398 nM	6.22	–	–
Cc1ncccc1-c1cc2c(Nc3ccc(C4CC4)cc3)ncnc2s1 [Compound 24]	–	–	2.5	6.6	–	110 nM	100 nM	6.62	–	–
CSc1ccc(Nc2ncnc3sc(-c4cccnc4C)cc23)cc1 [Compound 25]	–	–	5.0	6.6	282 nM	46.8 nM	50.1 nM	–	–	–
CSc1ccc(Nc2ncnc3sc(-c4ccncc4C)cc23)cc1 [Compound 26]	3.7 ^d 10^−6 cm s^−1	3 µM (≈ 1.09 µg/mL)	–	6.9	135 nM	19.5 nM	20 nM	–	–	0.94 min
COc1ccc(Nc2ncnc3sc(-c4ccncc4C)cc23)cc1 [Compound 27]	–	–	1.1	6.2	708 nM	661 nM	631 nM	–	–	–
CSc1ccc(Nc2ncnc3sc(-c4cccnc4Cl)cc23)cc1 [Compound 28]	–	–	12	6.6	229 nM	18.6 nM	20 nM	–	–	–
CSc1ccc(Nc2ncnc3sc(-c4cnoc4)cc23)cc1 [Compound 29]	–	–	6.0	6.6	–	42.7 nM	39.8 nM	6.59	–	–
CSc1ccc(Nc2ncnc3sc(-c4c(C)noc4C)cc23)cc1 [Compound 30]	–	–	6.3	6.8	–	24.5 nM	25.1 nM	6.81	–	–
Cc1csc2ncnc(Nc3ccc(S(C)(=O)=O)cc3)c12 [Compound 31]	–	–	>980	<4.3	–	–	50.1 nM	–	–	–
CN(C(=O)c1csc2ncnc(Nc3ccc(S(C)(=O)=O)cc3)c12)c1ccccc1 [Compound 34]	–	–	50	5.6	–	–	50.1 nM	–	–	–
Cc1sc2ncnc(Nc3ccc(S(C)(=O)=O)cc3)c2c1C [Compound 35]	–	–	>250	<4.3	–	–	200 nM	–	–	–
Cc1ncccc1-c1cc2ncnc(Nc3ccc(S(F)(F)(F)(F)F)cc3)c2s1 [Compound 40]	–	–	6.3	6.2	–	–	100 nM	–	–	–
Cc1ncccc1-c1cc2ncnc(Nc3ccc4ncoc4c3)c2s1 [Compound 41]	–	–	5.9	5.5	–	562 nM	501 nM	5.48	–	–
Cc1ncccc1-c1cc2ncnc(Nc3ccc(N4CCCC4=O)cc3)c2s1 [Compound 42]	3.15 10^−6 cm s^−1	10 µM (≈ 4.01 µg/mL)	–	7.0	112 nM	8.32 nM	7.94 nM	–	–	5.39 min
